# Measurements from patent US7803930B2, “Antisense modulation of apolipoprotein B-expression” (Isis Pharmaceuticals, Inc., priority 2002, dated 2010).
# In the oligonucleotide strings, read from the 5' end, every base follows the letter of its sugar. An asterisk marks phosphorothioate; unmarked linkages are phosphodiester. Other units and linkages are bracketed, terminal groups are in braces. A string of capitals states the bases alone. e = 2'-O-(2-methoxyethyl) (MOE); [5mC] = 5-methylcytosine; d = 2'-deoxy (DNA)
# Columns and labels:
# [1] = tested on: liver gene expression profile; lipid metabolism genes; experiment: Microarray and real-time PCR analysis of liver gene expression in lean versus high-fat fed mice (Example 65); format: in vivo, mouse; settings: high fat fed C57Bl/6 mice
# Protocol: Male C57Bl/6 mice were divided into the following groups, consisting of 5 animals each: (1) mice on a lean diet, injected with saline (lean control); (2) mice on a high fat diet; (3) mice on a high fat diet injected with 50 mg/kg of the control oligonucleotide 141923 (SEQ ID NO: 858); (4) mice on a high fat diet given 20 mg/kg atorvastatin calcium (Lipitor®, Pfizer Inc.); (5) mice on a high fat diet injected with 10, 25 or 50 mg/kg ISIS 147764 (SEQ ID NO: 109). Saline and oligonucleotide treatments were administered intraperitoneally twice weekly for 6 weeks. Atorvastatin was administered daily for 6 weeks. At study termination, liver samples were isolated from each animal and RNA was isolated for Northern blot qualitative assessment, DNA microarray and quantitative real-time PCR. Northern blot assessment and quantitative real-time PCR were performed as described by other examples herein.
# For DNA microarray analysis, hybridization samples were prepared from 10 μg of total RNA isolated from each mouse liver according to the Affymetrix Expression Analysis Technical Manual (Affymetrix, Inc., Santa Clara, Calif.). […] Signal values for each probe set were calculated using the Affymetrix Microarray Suite v5.0 software (Affymetrix, Inc., Santa Clara, Calif.). […]
# [2] = tested on: mouse apolipoprotein B protein; experiment: High fat fed mice (Example 51): serum apolipoprotein B protein, immunoblot; format: in vivo; settings: high fat fed C57Bl/6 mice; 50 mg/kg i.p. twice weekly
# Text: Furthermore, at 1, 2, 3 and 4 weeks of treatment, a inverse correlation between inhibition of target mRNA and cholesterol levels (total, HDL and LDL) is observed, with cholesterol levels lowering as percent inhibition of apolipoprotein B mRNA becomes greater. Serum samples were subjected to immunoblot analysis using an antibody to detect mouse apolipoprotein B protein (Gladstone Institute, San Francisco, Calif.).
# [3] = High fat fed mice (Example 51): total, LDL- and HDL-cholesterol levels; format: in vivo, mouse; settings: 50 mg/kg i.p. twice weekly
# Protocol: In a further embodiment of the invention, the inhibition of apolipoprotein B mRNA in mice was compared to liver oligonucleotide concentration, total cholesterol, LDL-cholesterol and HDL-cholesterol. Male C57Bl/6 mice receiving a high fat diet (60% fat) were evaluated over the course of 6 weeks for the effects of treatment with twice weekly intraperitoneal injections of 50 mg/kg ISIS 147764 (SEQ ID NO: 109) or 50 mg/kg of the control oligonucleotide ISIS 141923 (SEQ ID NO: 858). Control animals received saline treatment. Animals were sacrificed after 2 days, 1, 2, 4 and 6 weeks of treatment. Each treatment group at each time point consisted of 8 mice.
# Target expression in liver was measured by real-time PCR as described by other examples herein and is expressed as percent inhibition relative to saline treated mice. Total, LDL- and HDL-cholesterol levels were measured by routine clinical analysis using an Olympus Clinical Analyzer (Olympus America Inc., Melville, N.Y.) and are presented in mg/dL. Results from saline-treated animals are shown for comparison. Intact oligonucleotide in liver tissue was measured by capillary gel electrophoresis and is presented as micrograms of oligonucleotide per gram of tissue.
# The oligonucleotide treatments described in this example were duplicated to investigate the extent to which effects of ISIS 147764 persist following cessation of treatment. Mice were treated as described, and sacrificed 1, 2, 4, 6 and 8 weeks following the cessation of oligonucleotide treatment.
# apolipoprotein B mRNA = experiment: ob/ob mice (Example 50): apolipoprotein B mRNA levels in liver; format: in vivo, mouse; settings: high fat high cholesterol diet, 50 mg/kg i.p. twice a week, six weeks
# How it was run: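 Ob/ob mice on 60% kcal fat diet with 0.15% cholesterol received 50 mg/kg oligonucleotide i.p. twice weekly for six weeks, with saline and control oligonucleotides.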
# [4] = tested on: human apolipoprotein B protein; experiment: Transgenic mice dosing study (Example 52): ELISA of human apolipoprotein B protein in liver; format: in vivo, human transgene in mouse
# apolipoprotein B protein = experiment: Apolipoprotein B protein in primary Cynomolgous monkey hepatocytes, immunoblot; format: cell-based
# Protocol: Additionally, protein was isolated from oligonucleotide-treated primary Cynomolgous monkey hepatocytes and subjected to immunoblot analysis to further assess apolipoprotein B protein expression. Immunoblotting was performed as described herein, using an antibody to human apolipoprotein B protein (US Biologicals, Swampscott, Mass.).
# [5] = high fat fed male C57Bl/6 mice, treatment period 1 week
# [6] = high fat fed male C57Bl/6 mice, treatment period 2 weeks
# [7] = high fat fed male C57Bl/6 mice, treatment period 4 weeks
# [8] = high fat fed male C57Bl/6 mice, treatment period 6 weeks
# [9] = high fat fed male C57Bl/6 mice, treatment period 2 days
# [10] = high fat fed mice, 1 week after cessation of dosing
# [11] = high fat fed mice, 2 weeks after cessation of dosing
# [12] = high fat fed mice, 4 weeks after cessation of dosing
# [13] = high fat fed mice, 6 weeks after cessation of dosing
# [14] = high fat fed mice, 8 weeks after cessation of dosing
substance,measurement,setting,value
"GTCCCTGAAGATGTCAATGC (2'-MOE gapmer, further chemistry not given here) [ISIS 147764]","mRNA expression of lipid metabolism genes (hepatic lipase, fatty acid synthase, ABCD2, FABP2, stearol CoA desaturase-1, HMG CoA reductase), real-time PCR",[1],reduction in mRNA expression
same,liver gene expression profile (microarray),"[1]; 10, 25 or 50 mg/kg i.p. twice weekly, 6 weeks",drives the gene expression profile in high fat fed mice to the profile observed in lean mice
same,apolipoprotein B protein in serum (immunoblot),[2],markedly reduced within 48 hours
147764 (eG*eT*e[5mC]*e[5mC]*e[5mC]*dT*dG*dA*dA*dG*dA*dT*dG*dT*d[5mC]*eA*eA*eT*eG*e[5mC]) [compound 147764],HDL-cholesterol,[3]; [5],107 mg/dL
same,LDL-cholesterol,[3]; [5],19 mg/dL
same,Total cholesterol,[3]; [5],128 mg/dL
same,HDL-cholesterol,[3]; [6],105 mg/dL
same,LDL-cholesterol,[3]; [6],14 mg/dL
same,Total cholesterol,[3]; [6],121 mg/dL
same,HDL-cholesterol,[3]; [7],66 mg/dL
same,LDL-cholesterol,[3]; [7],7 mg/dL
same,Total cholesterol,[3]; [7],75 mg/dL
same,HDL-cholesterol,[3]; [8],64 mg/dL
same,LDL-cholesterol,[3]; [8],7 mg/dL
same,Total cholesterol,[3]; [8],73 mg/dL
same,HDL-cholesterol,[3]; [9],76 mg/dL
same,LDL-cholesterol,[3]; [9],7 mg/dL
same,Total cholesterol,[3]; [9],101 mg/dL
same,HDL-cholesterol,[3]; [10],51 mg/dL
same,LDL-cholesterol,[3]; [10],14 mg/dL
same,Total cholesterol,[3]; [10],69 mg/dL
same,HDL-cholesterol,[3]; [11],49 mg/dL
same,LDL-cholesterol,[3]; [11],14 mg/dL
same,Total cholesterol,[3]; [11],67 mg/dL
same,HDL-cholesterol,[3]; [12],79 mg/dL
same,LDL-cholesterol,[3]; [12],18 mg/dL
same,Total cholesterol,[3]; [12],111 mg/dL
same,HDL-cholesterol,[3]; [13],100 mg/dL
same,LDL-cholesterol,[3]; [13],24 mg/dL
same,Total cholesterol,[3]; [13],138 mg/dL
same,HDL-cholesterol,[3]; [14],94 mg/dL
same,LDL-cholesterol,[3]; [14],21 mg/dL
same,Total cholesterol,[3]; [14],135 mg/dL
same,apolipoprotein B mRNA levels,apolipoprotein B mRNA,able to lower
same,mRNA % control ApoB,apolipoprotein B mRNA; liver,43.1 % control
"ISIS 301012: SEQ ID NO: 247, antisense oligonucleotide targeted to human apolipoprotein B (antisense GCCTCAGTCTGCTTCGCACC; chemistry not given here)",reduction in human apolipoprotein B protein in liver (ELISA),[4]; 10 mg/kg,80%
same,reduction in human apolipoprotein B protein in liver (ELISA),[4]; 20 mg/kg (so in the source),82%
same,apolipoprotein B expression (immunoblot),apolipoprotein B protein,substantial reduction
